Assay results taken from US11090304B2 (Amgen Inc., priority 2018, dated 2021).
Where two headings read alike, the source gives them in different places. Blank lines part the entries; values can stand above or below the compound they belong to.

Experiments:
[1] = target: GDP-bound KRAS protein (aa 1-169), containing both G12C and C118A amino acid substitutions (Homo sapiens, UniProt P01116, C118A/G12C); experiment: Coupled nucleotide exchange assay (SOS-mediated, AlphaScreen); assay type: biochemical; conditions: 5 min compound pre-incubation
[2] = tested on: Phosphorylation of ERK1/2 in MIA PaCa-2 cells; experiment: Phospho-ERK1/2 MSD assay in MIA PaCa-2 cells; assay type: cell-based; conditions: read-out: p-ERK IC50 (2 h; MIA PaCa-2), 2 h compound treatment
Summary of the method: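 MIA PaCa-2 or A549 cells were treated with a compound dose-response titration for 2 or 4 h at 37 °C, then stimulated with 10 ng/mL EGF for 10 min. Phospho-ERK1/2 in RIPA lysates was measured by MSD whole-cell lysate immunoassay, and IC50 came from a 4-parameter logistic fit.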

Chain of GDP-bound KRAS protein (aa 1-169), containing both G12C and C118A amino acid substitutions (P01116 1-169 isoform P01116-2 G12C/C118A): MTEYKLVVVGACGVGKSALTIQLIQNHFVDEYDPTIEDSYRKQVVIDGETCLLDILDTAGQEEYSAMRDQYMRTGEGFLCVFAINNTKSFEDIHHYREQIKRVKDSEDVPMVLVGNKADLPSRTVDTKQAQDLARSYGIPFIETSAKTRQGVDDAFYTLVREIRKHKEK

Coupled exchange IC50 (5 min) [1]: 0.08 | nda μM
IC50 ([2]; Homo sapiens, MIA PaCa-2, 2 h): 52 nM
SMILES: C=CC(=O)N1CCN(c2nc(=O)n(-c3c(C)cc(CN(C)C)cc3C(C)C)c3nc(-c4ccccc4F)c(Cl)cc23)[C@@H](C)C1 [Example 80-1, 6-Chloro-1-(4-((dimethylamino)methyl)-2-methyl-6-(2-propanyl)phenyl)-7-(2-fluorophenyl)-4-((2S)-2-methyl-4-(2-propenoyl)-1-piperazinyl)pyrido[2,3-d]pyrimidin-2(1H)-one]

Coupled exchange IC50 (5 min) [1]: 0.11 | nda μM
IC50 ([2]; Homo sapiens, MIA PaCa-2, 2 h): 69 nM
SMILES: C=CC(=O)N1CCN(c2nc(=O)n(-c3ccccc3C(C)C)c3nc(-c4cc(N)ccc4Cl)c(Cl)cc23)[C@@H](C)C1 [Example 56-7, 7-(5-amino-2-chlorophenyl)-6-chloro-4-((2S)-2-methyl-4-(2-propenoyl)-1-piperazinyl)-1-(2-(2-propanyl)phenyl)pyrido[2,3-d]pyrimidin-2(1H)-one]

Coupled exchange IC50 (5 min) [1]: 0.061 | nda μM
IC50 ([2]; Homo sapiens, MIA PaCa-2, 2 h): 52 nM
SMILES: C=CC(=O)N1CCN(c2nc(=O)n(-c3c(C(C)C)ncnc3C(C)C)c3nc(-c4c(N)cccc4F)c(Cl)cc23)[C@@H](C)C1 [Example 56-2, 7-(2-amino-6-fluorophenyl)-6-chloro-1-(4,6-di(2-propanyl)-5-pyrimidinyl)-4-((2S)-2-methyl-4-(2-propenoyl)-1-piperazinyl)pyrido[2,3-d]pyrimidin-2(1H)-one]

Coupled exchange IC50 (5 min) [1]: 0.653 | nda μM
IC50 ([2]; Homo sapiens, MIA PaCa-2, 2 h): 303 nM
SMILES: C=CC(=O)N1CCN(c2nc(=O)n(-c3c(CC)cncc3CC)c3nc(-c4ccccc4F)c(Cl)cc23)[C@@H](C)C1 [Example 55-22, 6-chloro-1-(3,5-diethyl-4-pyridinyl)-7-(2-fluorophenyl)-4-((2S)-2-methyl-4-(2-propenoyl)-1-piperazinyl)pyrido[2,3-d]pyrimidin-2(1H)-one]

Coupled exchange IC50 (5 min) [1]: 0.059 | nda μM
IC50 ([2]; Homo sapiens, MIA PaCa-2, 2 h): 104 nM
SMILES: C=CC(=O)N1CCN(c2nc(=O)n(-c3c(C)ccnc3C(C)C)c3nc(-c4cc(OC)ccc4F)c(Cl)cc23)[C@@H](C)C1 (atropisomer, axis not shown; (M)) [Example 73-6, (M)-6-chloro-7-(2-fluoro-5-methoxyphenyl)-1-(4-methyl-2-(2-propanyl)-3-pyridinyl)-4-((2S)-2-methyl-4-(2-propenoyl)-1-piperazinyl)pyrido[2,3-d]pyrimidin-2(1H)-one]

Coupled exchange IC50 (5 min) [1]: 0.047 | nda μM
IC50 ([2]; Homo sapiens, MIA PaCa-2, 2 h): 62 nM
SMILES: C=CC(=O)N1CCN(c2nc(=O)n(-c3c(C)ccnc3C(C)C)c3nc(-c4cc(Cl)ccc4F)c(Cl)cc23)[C@@H](C)C1 (atropisomer, axis not shown; (M)) [Example 73-4, (M)-6-chloro-7-(5-chloro-2-fluorophenyl)-1-(4-methyl-2-(2-propanyl)-3-pyridinyl)-4-((2S)-2-methyl-4-(2-propenoyl)-1-piperazinyl)pyrido[2,3-d]pyrimidin-2(1H)-one]

Coupled exchange IC50 (5 min) [1]: 0.349 | nda μM
IC50 ([2]; Homo sapiens, MIA PaCa-2, 2 h): 2610 nM
SMILES: C=CC(=O)N1CCN(c2nc(=O)n(-c3c(C)ccnc3C(C)C)c3nc(-c4ccccc4F)c(Cl)cc23)C(CF)C1 (single isomer, unassigned) [Example 78-5, (M)-6-chloro-4-(2-(fluoromethyl)-4-(2-propenoyl)-1-piperazinyl)-7-(2-fluorophenyl)-1-(4-methyl-2-(2-propanyl)-3-pyridinyl)pyrido[2,3-d]pyrimidin-2(1H)-one]

Coupled exchange IC50 (5 min) [1]: 0.193 | nda μM
IC50 ([2]; Homo sapiens, MIA PaCa-2, 2 h): 155 nM
SMILES: C=CC(=O)N1CCN(c2nc(=O)n(-c3ccccc3C(C)C)c3nc(-c4c(F)cccc4C#N)c(Cl)cc23)[C@@H](C)C1 (single isomer, unassigned) [Example 98-1]

Coupled exchange IC50 (5 min) [1]: 0.125 | nda μM
IC50 ([2]; Homo sapiens, MIA PaCa-2, 2 h): 206 nM
SMILES: C=CC(=O)N1CCN(c2nc(=O)n(-c3c(C)cccc3C(C)C)c3nc(-c4nc(N)ccc4Cl)c(Cl)cc23)[C@@H](C)C1 [Example 70-3, 7-(6-amino-3-chloro-2-pyridinyl)-6-chloro-1-(2-methyl-6-(2-propanyl)phenyl)-4-((2S)-2-methyl-4-(2-propenoyl)-1-piperazinyl)pyrido[2,3-d]pyrimidin-2(1H)-one]

Coupled exchange IC50 (5 min) [1]: 0.315 | nda μM
IC50 ([2]; Homo sapiens, MIA PaCa-2, 2 h): 564 nM
SMILES: C=CC(=O)N1CCN(c2nc(=O)n(-c3c(C)ccnc3C(C)C)c3nc(-c4cc(OC)c(F)cc4F)c(F)cc23)[C@@H](C)C1 (atropisomer, axis not shown; (M)) [Example 72-6, (M)-7-(2,4-difluoro-5-methoxyphenyl)-6-fluoro-1-(4-methyl)-2-(2-propanyl)-3-pyridinyl)-4-((2S)-(2-methyl-4-(2-propenoyl)-1-piperazinyl)pyrido[2,3-d]pyrimidin-2(1H)-one]

Coupled exchange IC50 (5 min) [1]: 3.95 | nda μM
IC50 ([2]; Homo sapiens, MIA PaCa-2, 2 h): 4300 nM
SMILES: C=CC(=O)N1CCN(c2nc(CN(C)C)c(-c3ccccc3C(C)C)c3nc(-c4ccccc4F)c(Cl)cc23)[C@@H](C)C1 [Example 86-1, 1-((3S)-4-(3-Chloro-7-((dimethylamino)methyl)-2-(2-fluorophenyl)-8-(2-isopropylphenyl)-1,6-naphthyridin-5-yl)-3-methylpiperazin-1-yl)prop-2-en-1-one]

Coupled exchange IC50 (5 min) [1]: 0.133 | nda μM
IC50 ([2]; Homo sapiens, MIA PaCa-2, 2 h): 81 nM
SMILES: C=CC(=O)N1CCN(c2nc(=O)n(-c3c(C)ccnc3C(C)C)c3nc(-c4ccccc4F)c(Cl)cc23)[C@@H](CO)C1 (single isomer, unassigned) [Example 78-14]

More lines, now with the values behind:

SMILES: C=CC(=O)N1CCN(c2nc(=O)n(-c3c(C)cccc3C(C)C)c3nc(-c4c(C)ccc5[nH]ncc45)c(F)cc23)[C@@H](C)C1 (single isomer, unassigned) [Example 68-2-2]
Coupled exchange IC50 (5 min) [1]: 0.31 | nda μM
IC50 ([2]; Homo sapiens, MIA PaCa-2, 2 h): 607 nM

SMILES: C=CC(=O)N1CCN(c2nc(=O)n(-c3nccnc3CC)c3nc(-c4c(O)cccc4F)c(Cl)cc23)[C@@H](C)C1 [Example 54-37, 6-chloro-1-(3-ethyl-2-pyrazinyl)-7-(2-fluoro-6-hydroxy-phenyl)-4-((2S)-2-methyl-4-(2-propenoyl)-1-piperazinyl) pyrido[2,3-d]pyrimidin-2(1H)-one]
Coupled exchange IC50 (5 min) [1]: 0.304 | nda μM
IC50 ([2]; Homo sapiens, MIA PaCa-2, 2 h): 227 nM

SMILES: C=CC(=O)N1CCN(c2nc(=O)n(-c3ccccc3C(C)C)c3nc(-c4cc(O)cc(Cl)c4Cl)c(Cl)cc23)[C@@H](C)C1 [Example 54-91, 6-chloro-7-(2,3-dichloro-5-hydroxy-phenyl)-4-((2S)-2-methyl-4-(2-propenoyl)-1-piperazinyl)-1-(2-(2-propanyl)phenyl)pyrido [2,3-d]pyrimidin-2(1H)-one]
Coupled exchange IC50 (5 min) [1]: 0.033 | nda μM
IC50 ([2]; Homo sapiens, MIA PaCa-2, 2 h): 39 nM

SMILES: C=CC(=O)N1CCN(c2nc(=O)n(-c3c(C4CC4)ccnc3C)c3nc(-c4c(O)cccc4F)c(F)cc23)[C@@H](C)C1 (single isomer, unassigned) [Example 58-19-2]
Coupled exchange IC50 (5 min) [1]: 0.226 | nda μM
IC50 ([2]; Homo sapiens, MIA PaCa-2, 2 h): 525 nM

SMILES: C=CC(=O)N1CCN(c2nc(=O)n(-c3ccccc3C(C)C)c3nc(-c4cc(O)ccc4Cl)c(Cl)cc23)[C@@H](C)C1 (single isomer, unassigned) [Example 54-90-2]
Coupled exchange IC50 (5 min) [1]: 0.633 | nda μM
IC50 [2]: 568 nM

SMILES: C=CC(=O)N1CCN(c2nnc(-c3c(C(C)C)cccc3C(C)C)c3nc(-c4ccccc4F)c(Cl)cc23)[C@@H](C)C1 [Example 138, 1-((3S)-4-(3-Chloro-8-(2,6-di(2-propanyl)phenyl)-2-(2-fluorophenyl)pyrido[2,3-d]pyridazin-5-yl)-3-methyl-1-piperazinyl)-2-propen-1-one]
Coupled exchange IC50 (5 min) [1]: 1.75 | nda μM
IC50 ([2]; Homo sapiens, MIA PaCa-2, 2 h): 1590 nM

SMILES: C=CC(=O)N1CCN(c2nc(=O)n(-c3cncnc3C(C)C)c3nc(-c4c(O)cccc4F)c(Cl)cc23)[C@@H](C)C1 [Example 54-26, 6-chloro-7-(2-fluoro-6-hydroxy-phenyl)-4-((2S)-2-methyl-4-(2-propenoyl)-1-piperazinyl)-1-(4-(2-propanyl)-5-pyrimidinyl) pyrido[2,3-d]pyrimidin-2(1H)-one]
Coupled exchange IC50 (5 min) [1]: 0.105 | nda μM
IC50 ([2]; Homo sapiens, MIA PaCa-2, 2 h): 220 nM

SMILES: C=CC(=O)N1CCN(c2nc(=O)n(-c3ccccc3Cl)c3nc(-c4c(O)cccc4F)c(Cl)cc23)[C@@H](C)C1 [Example 54-35, 6-chloro-1-(2-chlorophenyl)-7-(2-fluoro-6-hydroxyphenyl)-4-((2S)-2-methyl-4-(2-propenoyl)-1-piperazinyl) pyrido[2,3-d]pyrimidin-2(1H)-one]
Coupled exchange IC50 (5 min) [1]: 0.582 | nda μM
IC50 ([2]; Homo sapiens, MIA PaCa-2, 2 h): 383 nM

SMILES: C=CC(=O)N1CCN(c2nc(=O)n(-c3ccccc3C3CCC3)c3nc(-c4ccccc4F)c(Cl)cc23)[C@@H](C)C1 (single isomer, unassigned) [Example 54-12-1]
Coupled exchange IC50 (5 min) [1]: 0.13 | nda μM
IC50 [2]: 78 nM

SMILES: C=CC(=O)N1CCN(c2nc(=O)n(-c3ccccc3C(C)C)c3nc(-c4cc(OC(F)F)ccc4F)c(Cl)cc23)[C@@H](C)C1 [Example 54-51, 6-chloro-7-(5-(difluoromethoxy)-2-fluorophenyl)-4-((2S)-2-methyl-4-(2-propenoyl)-1-piperazinyl)-1-(2-(2-propanyl)phenyl)pyrido [2,3-d]pyrimidin-2(1H)-one]
Coupled exchange IC50 (5 min) [1]: 0.265 | nda μM
IC50 ([2]; Homo sapiens, MIA PaCa-2, 2 h): 204 nM

SMILES: C=CC(=O)N1CCN(c2nc(=O)n(-c3ccccc3C(C)C)c3nc(-c4cc(O)ccc4Cl)c(Cl)cc23)[C@@H](C)C1 (single isomer, unassigned) [Example 54-90-1]
Coupled exchange IC50 (5 min) [1]: 0.047 | nda μM
IC50 [2]: 63 nM

SMILES: C=CC(=O)N1CCN(c2nc(=O)n(-c3cccnc3C(C)(C)C)c3nc(-c4c(O)cccc4F)c(Cl)cc23)[C@@H](C)C1 (single isomer, unassigned) [Example 54-103-1]
Coupled exchange IC50 (5 min) [1]: 0.073 | nda μM
IC50 ([2]; Homo sapiens, MIA PaCa-2, 2 h): 93 nM
